Calls of active or inactive are those of the source. The rule behind the calls is not given here.
Columns and labels:
[1] = species on record: Danio rerio; assay: Inhibition of larval development in zebra fish assessed as mortality at 10 ug/mL after 48 hrs; format: functional; parameters: scale not given: the % may be the effect or the level left
[2] = species on record: Danio rerio; assay: Inhibition of larval development in zebra fish assessed as retardation of blood circulatory system development at 10 ug/mL after 24 hrs; format: functional, organism-based
[3] = system: Danio rerio; assay: Inhibition of larval development in zebra fish assessed as induction of edema in heart at 10 ug/mL after 3 days; format: functional, organism-based
[4] = species on record: Danio rerio; assay: Inhibition of larval development in zebra fish assessed as induction of thrombosis in heart at 10 ug/mL after 3 days; format: functional, organism-based
[5] = species on record: Danio rerio; assay: Inhibition of larval development in zebra fish assessed as mortality at 10 ug/mL after 24 hrs; format: functional; parameters: scale not given: the % may be the effect or the level left
[6] = species on record: Danio rerio; assay: Inhibition of larval development in zebra fish assessed as retardation of blood circulatory system development at 10 ug/mL after 32 hrs; format: functional, organism-based
[7] = species on record: Danio rerio; assay: Inhibition of larval development in zebra fish at 1 ug/mL; format: functional, organism-based
[8] = system: Danio rerio; assay: Inhibition of larval development in zebra fish assessed as induction of edema in heart at 100 ug/mL after 3 days; format: functional, organism-based
[9] = species on record: Danio rerio; assay: Inhibition of larval development in zebra fish assessed as effect on larval mortality at 10 ug/mL; format: functional, organism-based
[10] = species on record: Danio rerio; assay: Inhibition of larval development in zebra fish assessed as tail bending at 100 ug/mL after 5 days; format: functional, organism-based
[11] = system: Danio rerio; assay: Inhibition of larval development in zebra fish assessed as induction of edema in heart at 100 ug/mL after 5 days; format: functional, organism-based
[12] = species on record: Danio rerio; assay: Inhibition of larval development in zebra fish assessed as effect on larval mortality at 100 ug/mL; format: functional, organism-based
[13] = species on record: Danio rerio; assay: Inhibition of larval development in zebra fish at 10 ug/mL; format: functional, organism-based
[14] = species on record: Danio rerio; assay: Inhibition of larval development in zebra fish assessed as tail bending at 100 ug/mL after 3 days; format: functional; parameters: scale not given: the % may be the effect or the level left

CC/C=C\C[C@@H]1O[C@H]1/C=C/C1CCCCCCCC(=O)O1 (relative stereo) [MUEGGELONE]
Activity [1]: 45% | Activity [2]: Active | Activity [3]: Active | Activity [4]: Active | Activity [5]: 45% | Activity [6]: Active | Activity [7]: inactive

C=C(C)[C@@H]1CC[C@]2(C)CC[C@]3(C)[C@H](CC[C@@H]4[C@@]5(C)CC[C@H](OC(C)=O)C(C)(C)[C@@H]5CC[C@]43C)[C@@H]12 [LUPENYL ACETATE]
Activity [8]: Active | Activity [9]: inactive | Activity [10]: Active | Activity [11]: Active | Activity [12]: inactive | Activity [13]: inactive | Activity [14]: 30%
